Measured values published in patent US20250241894A1, “TREATMENT OF MENTAL DISORDERS” (GH RESEARCH IRELAND LIMITED, priority 2022, published 2025).

System: patients with treatment-resistant major depressive disorder (TRD)
Experiment: Phase 1/2 clinical trial of inhaled 5-MeO-DMT in TRD: Part A single dose 12 mg or 18 mg; Part B individualized dosing regimen (IDR) 6, 12, 18 mg in a single day
Description: Patients were assigned to different groups. In the context of the present invention, the group who received a single, 12 mg dose and the group who underwent an intra-day individualized dosing regimen (IDR) that allowed for multiple, escalating doses (6 mg, 12 mg and 18 mg) within a single day, driven by the intensity of the patient-reported psychedelic experience are of interest.
This trial was designed in two parts. Part A was an open-label, single-arm, single-dose Phase 1 trial with two dose levels (12 mg (n=4) and 18 mg (n=4)). […] The primary endpoint of Part B was to assess the effects on the severity of depression, as assessed by the proportion of patients in remission on day seven after dosing, defined as a MADRS total score of less than or equal to 10.

[1] = 12 mg n=4, 2 hours, baseline 16

COc1ccc2[nH]cc(CCN(C)C)c2c1 [5-MeO-DMT]
MADRS Suicidal Thoughts improvement (12 mg n=4, 2 hours, baseline 8): 5 points | MADRS Inner Tension improvement (12 mg n=4, 2 hours, baseline 13): 11 points | MADRS Concentration Difficulties improvement [1]: 9 points | MADRS Inability to Feel improvement [1]: 7 points | MADRS Lassitude improvement [1]: 6 points | MADRS Pessimistic Thoughts improvement [1]: 8 points | BPRS Blunted Affect improvement (12 mg n=4, 3 hours, baseline 11): 3 points | BPRS Emotional Withdrawal improvement (12 mg n=4, 3 hours, baseline 13): 2 points | BPRS Tension improvement (12 mg n=4, 3 hours, baseline 14): 5 points | BPRS Guilt Feelings improvement (12 mg n=4, 3 hours, baseline 18): 9 points | BPRS Anxiety improvement (12 mg n=4, 3 hours, baseline 25): 14 points | MADRS Suicidal Thoughts improvement (12 mg n=4, Day 1, baseline 8): 3 points | BPRS Blunted Affect improvement (12 mg n=4, Day 1, baseline 11): 5 points | MADRS Reduced Sleep improvement (12 mg n=4, Day 1, baseline 12): 2 points | BPRS Emotional Withdrawal improvement (12 mg n=4, Day 1, baseline 13): 5 points | MADRS Inner Tension improvement (12 mg n=4, Day 1, baseline 13): 10 points | BPRS Tension improvement (12 mg n=4, Day 1, baseline 14): 8 points | MADRS Concentration Difficulties improvement (12 mg n=4, Day 1, baseline 16): 14 points | MADRS Inability to Feel improvement (12 mg n=4, Day 1, baseline 16): 15 points | MADRS Lassitude improvement (12 mg n=4, Day 1, baseline 16): 16 points | MADRS Pessimistic Thoughts improvement (12 mg n=4, Day 1, baseline 16): 9 points | BPRS Guilt Feelings improvement (12 mg n=4, Day 1, baseline 18): 13 points | BPRS Anxiety improvement (12 mg n=4, Day 1, baseline 25): 19 points | MADRS Suicidal Thoughts improvement (12 mg n=4, Day 7, baseline 8): 1 points | BPRS Blunted Affect improvement (12 mg n=4, Day 7, baseline 11): 6 points | MADRS Reduced Sleep improvement (12 mg n=4, Day 7, baseline 12): 6 points | BPRS Emotional Withdrawal improvement (12 mg n=4, Day 7, baseline 13): 7 points | MADRS Inner Tension improvement (12 mg n=4, Day 7, baseline 13): 8 points | BPRS Tension improvement (12 mg n=4, Day 7, baseline 14): 8 points | MADRS Concentration Difficulties improvement (12 mg n=4, Day 7, baseline 16): 13 points | MADRS Inability to Feel improvement (12 mg n=4, Day 7, baseline 16): 15 points | MADRS Lassitude improvement (12 mg n=4, Day 7, baseline 16): 13 points | MADRS Pessimistic Thoughts improvement (12 mg n=4, Day 7, baseline 16): 8 points | BPRS Guilt Feelings improvement (12 mg n=4, Day 7, baseline 18): 13 points | BPRS Anxiety improvement (12 mg n=4, Day 7, baseline 25): 19 points | MADRS Suicidal Thoughts improvement (IDR n=8, 2 hours, baseline 11): 8 points | MADRS Inner Tension improvement (IDR n=8, 2 hours, baseline 26): 15 points | MADRS Lassitude improvement (IDR n=8, 2 hours, baseline 27): 17 points | MADRS Pessimistic Thoughts improvement (IDR n=8, 2 hours, baseline 28): 21 points | MADRS Concentration Difficulties improvement (IDR n=8, 2 hours, baseline 30): 19 points | MADRS Inability to Feel improvement (IDR n=8, 2 hours, baseline 36): 24 points | BPRS Emotional Withdrawal improvement (IDR n=8, 3 hours, baseline 13): 5 points | BPRS Blunted Affect improvement (IDR n=8, 3 hours, baseline 15): 4 points | BPRS Tension improvement (IDR n=8, 3 hours, baseline 16): 5 points | BPRS Guilt Feelings improvement (IDR n=8, 3 hours, baseline 34): 20 points | BPRS Anxiety improvement (IDR n=8, 3 hours, baseline 37): 18 points | MADRS Suicidal Thoughts improvement (IDR n=8, Day 1, baseline 11): 10 points | BPRS Emotional Withdrawal improvement (IDR n=8, Day 1, baseline 13): 5 points | BPRS Blunted Affect improvement (IDR n=8, Day 1, baseline 15): 7 points | BPRS Tension improvement (IDR n=8, Day 1, baseline 16): 5 points | MADRS Reduced Sleep improvement (IDR n=8, Day 1, baseline 25): 13 points | MADRS Inner Tension improvement (IDR n=8, Day 1, baseline 26): 20 points | MADRS Lassitude improvement (IDR n=8, Day 1, baseline 27): 22 points | MADRS Pessimistic Thoughts improvement (IDR n=8, Day 1, baseline 28): 24 points | MADRS Concentration Difficulties improvement (IDR n=8, Day 1, baseline 30): 29 points | BPRS Guilt Feelings improvement (IDR n=8, Day 1, baseline 34): 23 points | MADRS Inability to Feel improvement (IDR n=8, Day 1, baseline 36): 34 points | BPRS Anxiety improvement (IDR n=8, Day 1, baseline 37): 21 points | MADRS Suicidal Thoughts improvement (IDR n=8, Day 7, baseline 11): 8 points | BPRS Emotional Withdrawal improvement (IDR n=8, Day 7, baseline 13): 5 points | BPRS Blunted Affect improvement (IDR n=8, Day 7, baseline 15): 7 points | BPRS Tension improvement (IDR n=8, Day 7, baseline 16): 6 points | MADRS Reduced Sleep improvement (IDR n=8, Day 7, baseline 25): 16 points | MADRS Inner Tension improvement (IDR n=8, Day 7, baseline 26): 14 points | MADRS Lassitude improvement (IDR n=8, Day 7, baseline 27): 24 points | MADRS Pessimistic Thoughts improvement (IDR n=8, Day 7, baseline 28): 25 points | MADRS Concentration Difficulties improvement (IDR n=8, Day 7, baseline 30): 21 points | BPRS Guilt Feelings improvement (IDR n=8, Day 7, baseline 34): 24 points | MADRS Inability to Feel improvement (IDR n=8, Day 7, baseline 36): 30 points | BPRS Anxiety improvement (IDR n=8, Day 7, baseline 37): 20 points | SAEs (Part A 12 mg and 18 mg): No SAEs | Severity and outcome of ADRs (Part A 12 mg and 18 mg): mild and resolved spontaneously | Proportion of patients in MADRS remission (Part A 12 mg n=4, day seven): 50% | Further patients with MADRS clinical response (Part A 18 mg n=4, day seven): 25% | Proportion of patients in MADRS remission (Part A 18 mg n=4, day seven): 25% | Outcome of ADRs (Part B IDR): resolved spontaneously | SAEs (Part B IDR): No SAEs | Proportion of patients in MADRS remission (total score <=10) (Part B IDR n=8, day seven): 87.5%
